The values that follow come from US11497819B2, “PSMA ligands for imaging and endoradiotherapy” (priority 2017, dated 2022).

In general, logP refers to a log measure of how a compound divides between an organic and an aqueous phase.

Several values for one entry are separate records, joined by “and”; a condition that tells them apart may be missing. Equal entries are not always repeated. Where two headings read alike, the source gives them in different places. *1 amine or outer side, *2 acyl side, *3 side chain or, on linkers, in order; H or OH if unused. Where a SMILES comes first, the peptide text is derived from it. Side-chain parts run from the residue outwards. [ ]: non-standard residue; d: D form. The star is where a group is joined. ξ: configuration not given here. ξOrn(Nα-γGlu(Nα-CO-Glu)) = O=C(O)CC[C@H](NC(=O)N[C@@H](CCC(=O)NC(CCCN*)C(=O)O)C(=O)O)C(=O)O; DOTAGA = O=C(O)CN1CCN(CC(=O)O)CCN(C(CCC(=O)*)C(=O)O)CCN(CC(=O)O)CC1; Phe(4-NO2) = N[C@@H](Cc1ccc([N+](=O)[O-])cc1)C(=O)O; X1 = O=C(c1ccc([N+](=O)[O-])cc1[N+](=O)[O-])*; d2Nal = N[C@H](Cc1ccc2ccccc2c1)C(=O)O; Suc = O=C(CCC(=O)[*:2])[*:1]; Dap = NC[C@H](N)C(=O)O

Data set [1] is described as follows: Lipophilicity, logP in n-octanol/PBS of radiolabeled PSMA inhibitors. The following applies: pH 7.4. Type of data set: physicochemical. As to the method: The radiolabeled PSMA inhibitor (0.5 to 1.0 MBq) dissolved in PBS (500 μL, pH=7.4), was added to n-octanol (500 μL) in a reaction vial (1.5 mL), which was rigorously vortexed for 3 min (n=6). For quantitative phase separation, the mixture was centrifuged at 6,000 g for 5 min (Biofuge 15, Heraus Sepatech, Osterode, Germany). The activity from samples of each phase (100 μL) were measured in a γ-counter to obtain the log P(o/w) value.

In another data set the test system is LNCaP cells. Briefly: Internalization into LNCaP cells, relative cellular uptake to ([^125I]I-BA)KuE. The data set is classed as cell-based. The conditions noted are these: c = 1.0 nM ^177Lu-labeled inhibitor, 37° C., 60 min, corrected for non-specific binding (10 μM 2-PMPA), mean ± SD (n = 3). As to the method:
PSMA-positive LNCAP cells (300265; Cell Lines Service GmbH) were cultivated in Dulbecco modified Eagle medium/Nutrition Mixture F-12 (1/1) (DMEM-F12, Biochrom) supplemented with fetal calf serum (FCS) (10%, Biochrom) and kept at 37° C. in a humidified CO2 atmosphere (5%). One day (24 h±2 h) prior to all experiments with LNCaP cells, the cultivated cells were harvested using a mixture of trypsin/ethylendiaminetetraacetate (0.05%/0.02%) and PBS and centrifuged. After centrifugation, the supernatant was disposed and the cell pellet resuspended in culture medium. Afterwards, cells were counted with a hemocytometer (Neubauer) and seeded in 24-well plates.
Subsequent to the removal of the culture medium, the cells were washed once with DMEM-F12-solution (500 μL, 5% BSA) and left to equilibrate for at least 15 min at 37° C. in DMEM-F12-solution (200 μL, 5% BSA). Afterwards, each well was treated with either DMEM-F12-solution (25 μL, 5% BSA) or 2-PMPA-solution (25 μL, 100 μm) for blockade. […] The experiment was terminated by placing the 24-well plate on ice for 3 min and the consecutive removal of the medium. Each well was rinsed with HBSS (250 μL) and the fractions from these first two steps combined, representing the amount of free radioligand. Removal of surface bound activity was accomplished by incubation of the cells with ice-cold 2-PMPA-solution (250 μL, 10 μm in PBS) for 5 min and subsequent rinsing with ice-cold PBS (250 μL). The internalized activity was determined through incubation of the cells in NaOH (250 μL, 1.0 m) and the combination with the fraction of the subsequent washing step with again NaOH (250 μL, 1.0 m). Each experiment (control and blockade) was performed in triplicate for each time point. Free, surface bound and internalized activity was quantified in a γ-counter.

The next data set has as its system LNCaP-tumor xenograft. Briefly: Biodistribution in LNCaP-tumor xenograft bearing CB-17 SCID mice. The data set is classed as in vivo. As to the method:
All animal experiments were carried out in accordance with the general animal welfare regulations in Germany (Deutsches Tierschutzgesetz, approval #55.2-1-54-2532-71-13). For the tumor model, LNCaP cells (approx. 10^7 cells) were suspended in serum-free DMEM-F12 medium and Matrigel (1/1; v/v) (BD Biosciences, Germany) and inoculated onto the right shoulder of male, 6 to 8 weeks old CB-17 SCID mice (Charles River Laboratories, Sulzfeld, Germany). Animals were used after the tumor size reached 4 to 8 mm in diameter for experiments.

A further data set concerns the target T1, HSA (Homo sapiens, UniProt P02768).
T1 construct: purchased Daicel Chemical Industries / Chiral Technologies Europe (Illkirch, France)
Briefly: HSA binding on Chiralpak HSA column. Type of data set: in vitro ADME. As to the method:
HSA binding experiments were performed as previously described. […] For each run, 10 μL of the solution containing the inhibitor was injected into the RP-HPLC system and the retention time measured. […] Non-linear regression was established with OriginPro 2016G.

Where [2] appears, read: male, CB-17 SCID, mouse, in vivo, 1 h.
Setting [3] is: distribution coefficient in n-octanol/PBS, radiolabeled inhibitor, mean ± SD (n = 6), read-out: logP.
Setting [4] is: after logarithmic plotting and calibration (n = 1).

T1 sequence (P02768 25-609): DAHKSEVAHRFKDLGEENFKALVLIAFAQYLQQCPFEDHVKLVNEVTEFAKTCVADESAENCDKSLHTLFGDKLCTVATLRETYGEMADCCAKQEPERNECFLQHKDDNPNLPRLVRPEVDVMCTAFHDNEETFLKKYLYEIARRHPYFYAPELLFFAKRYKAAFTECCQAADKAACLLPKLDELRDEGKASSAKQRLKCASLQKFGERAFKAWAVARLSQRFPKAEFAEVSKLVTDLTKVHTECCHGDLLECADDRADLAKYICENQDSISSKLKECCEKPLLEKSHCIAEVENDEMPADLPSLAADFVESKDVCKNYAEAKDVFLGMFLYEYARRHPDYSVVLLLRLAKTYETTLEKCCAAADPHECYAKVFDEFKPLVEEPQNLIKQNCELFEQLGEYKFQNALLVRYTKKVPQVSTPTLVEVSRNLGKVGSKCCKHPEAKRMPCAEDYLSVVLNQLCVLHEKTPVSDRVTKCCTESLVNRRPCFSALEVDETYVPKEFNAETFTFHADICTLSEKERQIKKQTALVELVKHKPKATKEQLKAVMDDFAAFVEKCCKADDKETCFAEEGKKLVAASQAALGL

In turn, `Nc1ccc(C[C@@H](NC(=O)CCC(C(=O)O)N2CCN(CC(=O)O)CCN(CC(=O)O)CCN(CC(=O)O)CC2)C(=O)N[C@H](Cc2ccc(O)cc2)C(=O)N[C@H](Cc2ccc3ccccc3c2)C(=O)N[C@H](CCCCNC(=O)CCC(=O)NCCCC(NC(=O)CC[C@H](NC(=O)N[C@@H](CCC(=O)O)C(=O)O)C(=O)O)C(=O)O)C(=O)O)cc1` (stereo in doubt) [PSMA-49, DOTAGA-F(4-NH2)y-2-nal-k(Suc-N^5-orn-C^4-EuE)] registered a logP in data set [1] of -4.01 ± 0.11. In the data set with LNCaP cells, the Internalization came to 245.0 ± 4.2%. Further, in the data set with LNCaP-tumor xenograft (setting [2]), the adrenal gland is reported as 5.66 ± 1.66 % ID/g, the blood came to 0.46 ± 0.06 % ID/g, the bone was 0.29 ± 0.14 % ID/g and the brain turned out to be 0.03 ± 0.01 % ID/g. Besides, in the data set on LNCaP-tumor xenograft (setting [2]), the heart was determined as 0.57 ± 0.11 % ID/g, the intestine was determined as 0.30 ± 0.08 % ID/g, the liver amounted to 0.99 ± 0.19 % ID/g and the lung amounted to 1.47 ± 0.25 % ID/g. In the data set on LNCaP-tumor xenograft (setting [2]), the muscle was 0.17 ± 0.02 % ID/g, the pancreas is 0.56 ± 0.07 % ID/g, the spleen amounted to 20.53 ± 6.79 % ID/g and the stomach is reported as 0.35 ± 0.10 % ID/g. In the data set with LNCaP-tumor xenograft (setting [2]), this compound had a tumor of 8.21 ± 0.23 % ID/g, a tumor/blood of 17.8, a tumor/kidney of 0.05 and a tumor/muscle of 48.3.

Regarding `O=C(O)CC[C@H](NC(=O)N[C@@H](CCC(=O)NC(CCCNC(=O)CCC(=O)NCCCC[C@@H](NC(=O)[C@@H](Cc1ccc2ccccc2c1)NC(=O)[C@@H](Cc1ccc(O)cc1)NC(=O)CCC(C(=O)O)N1CCN(CC(=O)O)CCN(CC(=O)O)CCN(CC(=O)O)CC1)C(=O)O)C(=O)O)C(=O)O)C(=O)O` (some centres unmarked) [PSMA-46, DOTAGA-y-2-nal-k(Suc-N^5-orn-C^4-EuE)], the logP in data set [1] (setting [3]) is -4.21 ± 0.08. The Internalization in the data set on LNCaP cells worked out at 216.2 ± 9.2%. For the same compound, at HSA (setting [4]), the “HSA (albumin binding)” value came out at 57.7%.

In the case of `O=C(O)CC[C@H](NC(=O)N[C@@H](CCC(=O)NC(CCCNC(=O)CCC(=O)NCCCC[C@@H](NC(=O)[C@@H](Cc1ccc2ccccc2c1)NC(=O)[C@@H](Cc1ccc(O)cc1)NC(=O)[C@H](Cc1ccc([N+](=O)[O-])cc1)NC(=O)CCC(C(=O)O)N1CCN(CC(=O)O)CCN(CC(=O)O)CCN(CC(=O)O)CC1)C(=O)O)C(=O)O)C(=O)O)C(=O)O` (some centres unmarked) [PSMA-52, DOTAGA-F(4-NO2)-y-2-nal-k(Suc-N^5-orn-C^4-EuE)] ({DOTAGA}-[Phe(4-NO2)][dY][d2Nal][dK]([Suc-ξOrn(Nα-γGlu(Nα-CO-Glu))])-OH), the logP in data set [1] was -4.11 ± 0.07. Further, the Internalization with LNCaP cells is given as 229.9 ± 8.0%. On HSA (human, 0.5 mg/mL), the “HSA (albumin binding)” value amounted to 95.4%.

As for `O=C(O)CC[C@H](NC(=O)N[C@@H](CCC(=O)NC(CCCNC(=O)CCC(=O)NCCCC[C@@H](NC(=O)[C@@H](Cc1ccc2ccccc2c1)NC(=O)[C@@H](Cc1ccc(O)cc1)NC(=O)[C@H](CNC(=O)CCC(C(=O)O)N1CCN(CC(=O)O)CCN(CC(=O)O)CCN(CC(=O)O)CC1)NC(=O)c1ccc([N+](=O)[O-])cc1[N+](=O)[O-])C(=O)O)C(=O)O)C(=O)O)C(=O)O` (some centres unmarked) [PSMA-53, 2,4-DNBA-Dap(DOTAGA)-y-2-nal-k(Suc-N^5-orn-C^4-EuE)] (X1-[Dap](DOTAGA)[dY][d2Nal][dK]([Suc-ξOrn(Nα-γGlu(Nα-CO-Glu))])-OH), the logP in data set [1] (setting [3]) was -4.08 ± 0.04. In the data set on LNCaP cells, the Internalization came to 293.6 ± 10.0%. Moreover, the “HSA (albumin binding)” value on HSA (setting [4]) was found to be 95.9%.

`Nc1ccc(C[C@H](NC(=O)CCC(C(=O)O)N2CCN(CC(=O)O)CCN(CC(=O)O)CCN(CC(=O)O)CC2)C(=O)N[C@H](Cc2ccc(O)cc2)C(=O)N[C@H](Cc2ccc3ccccc3c2)C(=O)N[C@H](CCC(=O)Nc2ccc(C(=O)NCCCC(NC(=O)CC[C@H](NC(=O)N[C@@H](CCC(=O)O)C(=O)O)C(=O)O)C(=O)O)cc2)C(=O)O)cc1` (some centres unmarked) [PSMA-60, DOTAGA-F(4-NH2)y-2-nal-e(Abz-N^5-orn-C^4-EuE)]: in data set [1], the logP was -3.85 ± 0.13. In the data set with LNCaP cells, the Internalization stood at 267.4 ± 7.9%.

As for `Nc1ccc(C[C@H](NC(=O)CCC(C(=O)O)N2CCN(CC(=O)O)CCN(CC(=O)O)CCN(CC(=O)O)CC2)C(=O)N[C@H](Cc2ccc(O)cc2)C(=O)N[C@H](Cc2ccc3ccccc3c2)C(=O)N[C@H](CCCCNC(=O)[C@@H](CC(=O)NCCCC(NC(=O)CC[C@H](NC(=O)N[C@@H](CCC(=O)O)C(=O)O)C(=O)O)C(=O)O)NC(=O)c2ccc([N+](=O)[O-])cc2[N+](=O)[O-])C(=O)O)cc1` (some centres unmarked) [PSMA-61, DOTAGA-F(4-NH2)y-2-nal-k(d[N^5-orn-C^4-EuE]-2,4-DNBA)], the logP in data set [1] (setting [3]) was -4.07 ± 0.05. In addition, the Internalization in the data set with LNCaP cells is reported as 359.5 ± 22.6%. The “HSA (albumin binding)” value on HSA (setting [4]) is 63.3%. Further, the tumor in the data set on LNCaP-tumor xenograft (1 h p.i., ^177Lu-labeled, n = 4) was found to be 8.00±0.75 % ID/g; with LNCaP-tumor xenograft (24 h p.i., ^177Lu-labeled, n = 4), 7.70±1.35 % ID/g.

For `O=C(O)CC[C@H](NC(=O)N[C@@H](CCC(=O)NC(CCCNC(=O)c1ccc(NC(=O)CC[C@@H](NC(=O)[C@@H](Cc2ccc3ccccc3c2)NC(=O)[C@@H](Cc2ccc(O)cc2)NC(=O)[C@H](CNC(=O)CCC(C(=O)O)N2CCN(CC(=O)O)CCN(CC(=O)O)CCN(CC(=O)O)CC2)NC(=O)c2ccc([N+](=O)[O-])cc2[N+](=O)[O-])C(=O)O)cc1)C(=O)O)C(=O)O)C(=O)O` (some centres unmarked) [PSMA-65, 2,4-DNBA-Dap(DOTAGA)y-2-nal-e(Abz-N^5-orn-C^4-EuE)], the logP in data set [1] (setting [3]) is -4.15 ± 0.08. In the data set with LNCaP cells (listed as [^nat/177Lu]PSMA-65), the Internalization is 340.2 ± 19.9% and 340.2 ± 18.9%. On HSA (after logarithmic plotting and calibration (n = 1), listed as [^nat/177Lu]PSMA-65), the “HSA (albumin binding)” value is 98.7%.

As to `Nc1ccc(C[C@H](NC(=O)CCC(C(=O)O)N2CCN(CC(=O)O)CCN(CC(=O)O)CCN(CC(=O)O)CC2)C(=O)N[C@H](Cc2ccc(O)cc2)C(=O)N[C@H](Cc2ccc3ccccc3c2)C(=O)N[C@H](CCCCNC(=O)[C@@H](CC(=O)NCCCC(NC(=O)CC[C@H](NC(=O)N[C@@H](CCC(=O)O)C(=O)O)C(=O)O)C(=O)O)NC(=O)c2cc(O)cc(O)c2)C(=O)O)cc1` (some centres unmarked) [PSMA-78, DOTAGA-F(4-NH2)y-2-nal-k(d[N^5-orn-C^4-EuE]-3,5-DHBA)], the Internalization with LNCaP cells came out at 289.0 ± 6.2%.
